Laboratory results from patent US20070166367A1, “Adept or gdept producing acetaldehyde” (priority 2004, published 2007).
Like-named read-outs stand apart in the source and are kept apart here.

Legend:
Ad-ADH CMT-64 cells [1] = experiment: Ad-ADH ethanol cytotoxicity assay; format: cell-based; conditions: for numbers of cells: seeded at 5×10^5 on Day 0, day 2, FIG. 4; for total cell number as % of the starting number: ethanol
Experimental: (§1) Cells were placed into 6 well plates at 5×10^6 per well. After overnight incubation, the cells were washed twice in PBS then incubated with virus (Hela MOI 100, CMT-64 MOI 1000) at 37° C. for 1 hr in 1 ml of serum free media. Following addition of 3 mls more of tissue culture medium the cells were incubated overnight, assayed for ADH activity and used for experiments as below.

Daudi lymphoma cells = experiment: acetaldehyde combined with Cisplatin in vitro; format: cell-based
From the text: The results shown are the number of live cells at each time point shown as a % of the number of cells at the start of the expt (ie 100% at time 0 hrs).

Ad-ADH Hela cells = experiment: Ad-ADH ethanol cytotoxicity assay; format: cell-based; conditions: seeded at 5×10^5 on Day 0, day 2, FIG. 4
Experimental: as §1

CMT-64 = experiment: in vitro acetaldehyde and cisplatin toxicity assay; format: cell-based; conditions: FIG. 2
Experimental: (§2) Standard tissue culture techniques were used to maintain Hela, Daudi, Jurkat, CMT-64 cells in flasks in DMEM+10% FCS in a 37° C. incubator.
(§3) Cell lines subcloned into 25-cm^2 flasks and incubated in media containing dilutions of acetaldehyde, cisplatin or both. Flasks remained sealed during incubation and the media and acetaldehyde/cisplatin were replaced daily. Viable cell counts were made using Trypan blue exclusion and a standard haemocytometer.

Daudi = experiment: in vitro acetaldehyde and cisplatin toxicity assay; format: cell-based; conditions: higher cell density, 3 days exposure, FIG. 2
Experimental: as §2, §3

CMT-64 cells = conditions: ethanol IP for several days, particularly on Day 6, FIG. 5
Experimental: CMT-64 cells are injected s-c into mice and tumour growth allowed to proceed.
Virus described above is introduced into the CMT-64 cells.
Alcohol (ethanol) is injected IP for several days.
Tumour dimensions are monitored thereafter.

[2] = in vivo; cited from earlier work
[3] = cited from earlier work
wild type CMT-64 cells = conditions: ethanol 2 g/kg IP days 0-4 (group 3)
Experimental: (§4) The animal experiment was approved by the Cancer Research UK animal use and safety committee and the Home Office before initiation. On the day prior to injection, 6×10^6 CMT-64 cells were transduced with the Ad-ADH virus in vitro, then on Day 0 adult C57B/6 mice received s-c injections in the flank of 5×10^5 Ad-ADH CMT-64 cells (groups 1 and 2) or mock infected CMT-64 cells (groups 3 and 4) suspended in 100 uL of PBS. On days 0-4 groups 1 and 3 were injected with 500 ul of 12% ethanol (2 g/kg) solution IP and groups 2 and 4 received 500 uL of water IP, there were 6 mice in each group. Tumour volume was estimated twice weekly using the formula: volume=(length×width×width)×(3.142/6).
(§5) Tumour size was measure on Days 6, 10 and 13; the results are shown as the mean and SD from 6 mice per group.

Ad-ADH CMT-64 cells [4] = test system: Ad-ADH CMT-64 cells
Experimental: as §4, §5

[5] = chronic exposure to ethanol (4%), +12 weeks; cited from earlier work

With `Cc1cn[nH]c1` [4-MP, 4-methylpyrazole] the “effect on ethanol mediated growth reduction” value (Ad-ADH CMT-64 cells [1]; 4-MP 10 uMol) was “blocking of this effect”.
For `N.N.[Cl][Pt][Cl]` [cisplatin, Cisplatin], the “number of live cells as a % of the number of cells at the start” value (“number of live cells as a % … at the start” below) (Daudi lymphoma cells; Cisplatin at 30 μM, 6 hr) was 147%, the “number of live cells as a % … at the start” value (Daudi lymphoma cells; Cisplatin at 30 μM, 18 hr) was 122% and the “number of live cells as a % … at the start” value (Daudi lymphoma cells; Cisplatin at 30 μM, 21 hr) was 76%. The “number of live cells as a % … at the start” value (Daudi lymphoma cells; Cisplatin at 30 μM, 25 hr) was 82%, the “number of live cells as a % … at the start” value (Daudi lymphoma cells; Cisplatin at 30 μM, 42 hr) was 36% and the “number of live cells as a % … at the start” value (Daudi lymphoma cells; repeated experiment, +25 hours) was 63%. The numbers of cells (Ad-ADH CMT-64 cells [1]) was 3.75×10^5, the numbers of cells (Ad-ADH Hela cells) was 3.2×10^5 and the “cell number as % of starting number” value (CMT-64) was 80%. For the same compound, the “cell number as % of starting number” value (Daudi) was 21%.
In the case of `CCO` [ethanol], the tumour growth (CMT-64 cells) is listed as “significant inhibition of growth”, the well tolerated levels [2] is listed as 500 to 2500 mg/L and the “cell number as % of non-ethanol exposed controls” value (Ad-ADH CMT-64 cells [1]; 2 days ethanol exposure) is listed as 30%. For the same compound, the number of cells (Ad-ADH CMT-64 cells [1]; ethanol 20 mM, day 2, FIG. 3) was 3.7×10^5, the “total cell number as % of the starting number” value (Ad-ADH CMT-64 cells [1]; day 2) was 74% and the “total cell number as % of the starting number” value (Ad-ADH CMT-64 cells [1]; day 4) was 36%. For the same compound, the number of cells (Ad-ADH CMT-64 cells [1]; extended ethanol exposure, day 4) was 1.8×10^5, the numbers of cells (Ad-ADH CMT-64 cells [1]) was 3.5×10^5 and the numbers of cells (Ad-ADH Hela cells) was 6.2×10^5. The “time until blood ethanol levels fell below the limit of detection” value ([3]; IP ethanol injections of 3.7-3.8 g/kg) was 6 to 7 h, the “rate of ethanol metabolism in mice relative to humans” value ([3]; mouse, in vivo) was 5 times and the mean tumour volumes (wild type CMT-64 cells; day 6) was 0.1645 cm^3. The mean tumour volumes (wild type CMT-64 cells; day 13) was 0.514 cm^3, the “tumour size of one mouse” value (Ad-ADH CMT-64 cells [4]; Day 10 and Day 23, no further increase) was 0.058 cm3 and the “median size as % of the water treated controls” value (Ad-ADH CMT-64 cells [4]; day 6) was 30%. The “median size as % of the water treated controls” value (Ad-ADH CMT-64 cells [4]; day 13) was 42%, the “mean size of the tumours” value (Ad-ADH CMT-64 cells [4]; ethanol 2 g/kg IP days 0-4, day 6) was 0.036 cm^3 and the “mean size of the tumours” value (Ad-ADH CMT-64 cells [4]; ethanol 2 g/kg IP days 0-4, day 13) was 0.18 cm3. For the same compound, the cardiac toxicity [5] was “severe myocardial damage”.
